Assays:
ischemic brain injury = conditions: after ischemic brain injury; cited from earlier work
[1] = tested on: rat model of Parkinson's disease; conditions: cited from earlier work
GHS-R = GHS-R (Homo sapiens, UniProt Q92847); assay: cell based assay of GHS-R antagonist activity (Table 4)
Chain of GHS-R (Q92847 whole entry): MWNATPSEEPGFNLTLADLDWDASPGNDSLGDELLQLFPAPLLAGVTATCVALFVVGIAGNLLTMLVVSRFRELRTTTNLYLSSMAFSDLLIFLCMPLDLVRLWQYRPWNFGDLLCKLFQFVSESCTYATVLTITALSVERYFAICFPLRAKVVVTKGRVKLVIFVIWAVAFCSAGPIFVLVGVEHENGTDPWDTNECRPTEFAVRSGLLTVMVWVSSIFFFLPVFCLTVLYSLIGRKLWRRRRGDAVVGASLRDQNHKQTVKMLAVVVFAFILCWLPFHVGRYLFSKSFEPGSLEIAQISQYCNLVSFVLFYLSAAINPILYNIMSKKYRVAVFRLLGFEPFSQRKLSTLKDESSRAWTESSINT

In the case of C=CC[C@]12CCCN1C(=O)CNC2=O [NNZ-2591, cyclo-L-glycyl-L-2-allylproline], the neuroprotection (ischemic brain injury) is listed as “neuroprotective” and the motor function [1] is listed as “improves motor function”.

With CCN(CC)CCCS(=O)(=O)N[C@H](CCc1ccccc1)c1nc(-c2cncn2C)n[nH]1 [Compound 135] the Ki (GHS-R) was < 100 nM.

“3-Diethylamino-propane-1-sulfonic acid {(R)-1-[3-(5-bromo-pyridin-3-yl)-[1,2,4]oxadiazol-5-yl]-phenyl-propyl}-amide [Compound 103]” gave a Ki (GHS-R) of 100 to 500 nM.

From patent US20170266257A1, “METHODS OF TREATING TRAUMATIC BRAIN INJURY” (OXEIA BIOPHARMACEUTICALS, INC., priority 2014, published 2017)
